Reference: patent US20240245702A1, “Inhibition of Lysine Demethylase 1 (Lsd1) Induces Differentiation of Hair Cells” (Massachusetts Eye and Ear Infirmary, priority 2018, published 2024)

Assays:
Format in all cases: cell-based, mouse
Tcf/Lef = Tcf/Lef luciferase reporter assay of Wnt activity in inner ear organoids; conditions: addition of pargyline to CHIR99021 or LYCH; luciferase at 48 hours
Method: Luciferase assay. Wnt activity was assessed in inner ear organoids using lentiviral vector expressing Firefly luciferase under the control of 7 Tcf binding sites (Fuerer and Nusse, 2010). Cochlear progenitor cells were dissected from sensory epithelia of wild-type neonatal mice using the established protocol described above (McLean et al., 2017). Dissociated cells were resuspended in proliferation media contain poly brene (Sigma) and lentivirus reporter (7TFC, Addgene #24307) and plated in 96 well plate coated with matrigel for 12-16 hours, [adapted from (Maru et al., 2016)]. The following day, media (containing dead cells and virus) was aspirated and a top layer of matrigel applied to the adherent cells and allowed to solidify, followed by addition of proliferation media. Media was changed every 2 days for 10 days as organoids developed. At day 10, media was changed to differentiation conditions with removal of growth factors and treatment with drug combinations described above. […] Luciferase was measured at 48 hours and normalized to total protein concentration.
Active canonical Wnt signaling is facilitated by the nuclear translocation of β-catenin, which binds with transcription factors of the Tcf/Lef family to activate transcription. […] We also analyzed Wnt activity in the treated cells using a Tcf/Lef reporter assay.

LCP organoids = test: Immunostaining of differentiated organoids for Atoh1 and Myo7a
From the text: Immunochemistry. […] Nuclei were visualized using DAPI (Vector Laboratories).

Myo7a = test: qRT-PCR of Myo7a in differentiated LCP organoids; conditions: D10, pargyline-treated cells relative to standard treatment, p<0.05
Method: (§1) Differentiation of LCPs into a hair cell lineage. […] To analyze the effect of the Lsd1 inhibitors, the LCPs were treated with the small molecules combined with a differentiation drug cocktail, pargyline and CHIR99021 or CHIR99021 at 1, 2, 4, and 10 days (McLean et al., 2017).
(§2) RNA extraction and PCR. For the LCPs, the organoids were treated with Cell Recovery Solution for at 1 hour and TrypleE for 20 minutes, then frozen in RLT buffer. RNA extractions were performed using the RNeasy Micro Kit (QIAGEN) and cDNA generated using ImProm-II Reverse Transcription Kit (Promega). TaqMan Real-Time PCR was performed in triplicates using the TaqMan Gene Expression Master Mix (ThermoFisher Scientific) on a StepOne Real-Time PCR machine (ThermoFisher Scientific). Ordinary One-way Anova was used to assess statistical significance. A minimum of three biologically distinct samples were analyzed for each condition.
(§3) We next tested the effect of Lsd1 inhibition on hair cell differentiation. In this assay, after the cells were expanded into organoids during the initial proliferation phase, differentiation was initiated using the combination of CHIR99021 and LY411575 and allowed to progress for 10 days (DO to D10). Organoids were monitored for the development of hair cells using FACS and qRT-PCR. […] Conversely, Myo7a expression increases throughout development and is a key marker of mature hair cells. […]

Atoh1 locus = test: Chromatin immunoprecipitation (ChIP-qPCR) of histone marks on the Atoh1 gene in LCPs
Method: Chromatin immunoprecipitation. The colonies were treated with Cell Recovery solution for up to 2 hours and TrypleE for 30 minutes. The cells were fixed with 1% formaldehyde for 30 minutes at room temperature before termination with 0.1M Glycine. The cells were treated with lysis buffer (0.5M EDTA and 0.05% Triton-X 100) for 30 minutes on ice and then with nuclear extraction buffer (0.5M EDTA, 20% SDS, 1M Tris-HCl, pH 8) for 10 minutes. The cross-linked chromatin was sonicated for 30 minutes (30×30 seconds with 30 second intervals) and shearing quality confirmed by running 10 ul of the sample on a 1% agarose gel. The input sample used was 5% of the total chromatin. Lo-bind tubes containing Dyna-A and Dyna-B beads in PBS-BSA were incubated with 3 μg of Primary antibody for 6 hours-overnight with rotation at 4° C. The antibodies used were as follows H3K4me (ab8895: Abcam), H3K4me2 (ab77661: Abcam), H3K9me2 (ab1220; Abcam) and Lsd1 (ab17721: Abcam). The chromatin samples were treated with dilution buffer (1% Triton-X 100, 0.5M EDTA, 5M NaCl, 1M Tris-HCl, pH 8 and 1% Protease inhibitors×100) and incubated with the prepared beads for 6 hours-overnight. The beads were captured on a magnetic rack, washed with ChIP RIPA buffer (1M Hepes, 0.5M EDTA, 10% Na-deoxycholate, NP-40 and 5M LiCl: 6×10 minute washes), TE buffer (1M Tris-HCl and 0.5M EDTA: 2×10 minute washes), resuspended in reverse crosslinking solution (0.5M NaHCO3 and 20% SDS) and incubated overnight at 65° C. DNA was recovered using the Active motif DNA extraction kit (58002: Active Motif). RT-qPCR analyses were performed on immunoprecipitated DNA using specific primers described in Table 2. The results were calculated and presented as relative fold enrichment over the input.
In order to further dissect the mechanism of Lsd1 activity, we analyzed changes in epigenetic marks on several sites along the Atoh1 gene using chromatin immunoprecipitation. We used the LCPs starting at day 0 (D0) of differentiation with day 10 (D10) as the endpoint (FIG. 5A). Lsd1 has been characterized to demethylate the activating epigenetic marks H3K4me and H3K4me2 (Shi et al., 2004). […] Consistently, we observed accumulation of the activating H3K4me2 mark at the proximal promoter region (region 2) of the Atoh1 gene during hair cell differentiation (D10, p<0.05*: FIG. 5B). […] In addition, we examined the enrichment levels of H3K4me around the Atoh1 locus. […] Collectively, these findings reveal that Lsd1 inhibition increases accumulation of activating epigenetic marks, thereby facilitating the opening of the chromatin and activating transcription of the Atoh1 gene.
As Lsd1 is also known to demethylate H3K9me2, we analyzed the changes in the levels of this repressive mark at the Atoh1 locus (Metzger et al., 2005).

Atoh1 = test: qRT-PCR of Atoh1 in differentiated LCP organoids; conditions: D10, pargyline-treated cells relative to standard treatment
Method: as §1, §2, §3

C#CCN(C)Cc1ccccc1 [pargyline, N-Methyl-N-propargylbenzylamine]
Tcf/Lef activity (Tcf/Lef): no significant difference
immunostaining for Atoh1 and Myo7a (LCP organoids): almost uniformly positive
Myo7a expression (Myo7a): significantly upregulated
levels of H3K4me2 at the enhancer regions (region 5) of Atoh1 (Atoh1 locus; D10 with pargyline): not statistically significant
level of H3K4me2 at the proximal promoter region (region 2) of Atoh1 (Atoh1 locus; D10 with pargyline compared to D0, p<0.01): significantly increased
enrichment for H3K9me2 on the Atoh1 gene (Atoh1 locus; addition of pargyline): did not significantly alter
H3K4me mark at the enhancer region (region 5) of Atoh1 (Atoh1 locus; after pargyline treatment, p<0.01): significant enrichment
mRNA levels of Atoh1 (Atoh1): no difference
